The text below walks through data of ChEMBL document CHEMBL1151536, “Biaryl substituted alkylboronate esters as thrombin inhibitors” (Bioorg Med Chem Lett, 1997).

A word on the Ki: it is the dissociation constant of the complex between target and ligand, obtained from inhibition or displacement. What is called IC50 is the concentration needed to halve the response being measured. Read a low IC50 as higher potency.

The target in one assay is Serine protease 1 (Homo sapiens, UniProt P07477). The experiment in a line: Inhibition of trypsin.
For a further assay, the target named is Prothrombin (Homo sapiens, UniProt P00734). The experiment in a line: Inhibition of thrombin. Further details: species or system Oryctolagus cuniculus.
Assay [1] can be described thus: In vitro inhibitory concentration expressed as thrombin time of the compound. It counts as functional.

Chain of Serine protease 1 (P07477 whole entry): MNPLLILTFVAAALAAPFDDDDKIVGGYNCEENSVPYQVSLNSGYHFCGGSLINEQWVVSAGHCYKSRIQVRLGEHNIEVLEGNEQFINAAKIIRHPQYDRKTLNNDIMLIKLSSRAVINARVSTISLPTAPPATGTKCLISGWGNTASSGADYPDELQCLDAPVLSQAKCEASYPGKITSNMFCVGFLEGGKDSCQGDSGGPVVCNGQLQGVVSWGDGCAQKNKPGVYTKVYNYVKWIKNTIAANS

With `CC1(C)C2CC1[C@]1(C)OB([C@H](CCCN=C(N)N)NC(=O)c3ccc(-c4ccccc4)c([N+](=O)[O-])c3)O[C@@H]1C2` (some centres not stated), the Ki stood at 4.8 nM on Serine protease 1 and 4.9 nM at Prothrombin.

For `N=C(N)NCCC[C@H](NC(=O)c1ccc(-c2ccccc2)cc1)B(O)O`, the affinity at Prothrombin corresponds to a Ki of 1.7 nM. `CC1(C)C2CC1[C@]1(C)OB([C@H](CCCN=C(N)N)NC(=O)c3ccc(-c4ccccc4)cc3)O[C@@H]1C2` (some centres not stated): the Ki was found to be 33 nM on Serine protease 1 and 0.94 nM at Prothrombin. In the same order, the values of `CC(C)(C)OC(=O)Nc1cccc(-c2ccc(C(=O)N[C@@H](CCCNC(=N)N)B3O[C@@H]4CC5CC(C5(C)C)[C@]4(C)O3)s2)c1` (some centres not stated) are 13 nM and 42 nM. On to `COC(=O)NS(=O)(=O)c1ccccc1-c1ccc(C(=O)N[C@@H](CCCN=C(N)N)B2O[C@@H]3CC4CC(C4(C)C)[C@]3(C)O2)c(C)c1` (some centres not stated), for which the Ki on Serine protease 1 amounted to 0.64 nM; on Prothrombin, 1.1 nM. In assay [1], this compound came in with an IC50 of 225 nM. In turn, `Cc1nc(-c2ccccc2)ccc1C(=O)N[C@@H](CCCCN)B1O[C@@H]2CC3CC(C3(C)C)[C@]2(C)O1` (some centres not stated) returned a Ki on Prothrombin of 580 nM.

Consider `CC1(C)C2CC1[C@]1(C)OB([C@H](CCCN=C(N)N)NC(=O)c3ccc(-c4ccccc4)c(N)c3)O[C@@H]1C2` (some centres not stated), for which the Ki on Serine protease 1 stood at 4.7 nM; on Prothrombin it was 5.5 nM.

Consider `Cc1cc(-c2ccccc2)ccc1C(=O)N[C@@H](CCCN=C(N)N)B1O[C@@H]2CC3CC(C3(C)C)[C@]2(C)O1` (some centres not stated), for which the figures for the Ki on Serine protease 1 and at Prothrombin were 4.2 nM and 0.42 nM, respectively. In addition, half-maximal inhibition in assay [1] (IC50) was put at 600 nM.

Compound `Cc1nc(-c2ccccc2)ncc1C(=O)N[C@@H](CCCCN)B1O[C@@H]2CC3CC(C3(C)C)[C@]2(C)O1` (some centres not stated) had a Ki at Prothrombin of 410 nM.

In the case of `CCN(CC)S(=O)(=O)c1ccccc1-c1ccc(C(=O)N[C@@H](CCCNC(=N)N)B2O[C@@H]3CC4CC(C4(C)C)[C@]3(C)O2)c(C)c1` (some centres not stated), the figures for the Ki on Serine protease 1 and on Prothrombin were 0.62 nM and 0.36 nM, respectively. Taken in the same sequence, the figures for `CC1(C)C2CC1[C@]1(C)OB([C@H](CCCNC(=N)N)NC(=O)c3cccc(-c4ccccc4)c3)O[C@@H]1C2` (some centres not stated) were 7.4 nM and 110 nM.

Regarding `CC(=O)N[C@H](Cc1ccccc1)C(=O)N1CCC[C@H]1C(=O)N[C@@H](CCCN=C(N)N)B(O)O`, the IC50 in assay [1] was determined as 55 nM. Regarding `Cc1nc(-c2ccccc2)ncc1C(=O)N[C@@H](CCCN=C(N)N)B1O[C@@H]2CC3CC(C3(C)C)[C@]2(C)O1` (some centres not stated), the affinity on Prothrombin corresponds to a Ki of 10 nM. As to `CC(C)(C)OC(=O)Nc1cccc(-c2cccc(C(=O)N[C@@H](CCCN=C(N)N)B3O[C@@H]4CC5CC(C5(C)C)[C@]4(C)O3)c2)c1` (some centres not stated), the figures for the Ki on Serine protease 1 and at Prothrombin were 35 nM and 8.3 nM, respectively. For `CC1(C)C2CC1[C@]1(C)OB([C@H](CCCN=C(N)N)NC(=O)c3ccc(-c4ccccc4)cc3F)O[C@@H]1C2` (some centres not stated), on Prothrombin, affinity was put at a Ki of 1.2 nM. Turning to `CC1(C)C2CC1[C@]1(C)OB([C@H](CCCN=C(N)N)NC(=O)c3ccc(-c4ccccc4)cc3N)O[C@@H]1C2` (some centres not stated), the Ki on Serine protease 1 came to 5.3 nM; on Prothrombin it was 1.3 nM. Compound `CC1(C)C2CC1[C@]1(C)OB([C@H](CCCN=C(N)N)NC(=O)c3ccc(-c4ccccc4)cc3[N+](=O)[O-])O[C@@H]1C2` (some centres not stated) gave a Ki on Prothrombin of 4.7 nM. Regarding `CC(C)(C)OC(=O)Nc1cccc(-c2ccc(C(=O)N[C@@H](CCCN=C(N)N)B3O[C@@H]4CC5CC(C5(C)C)[C@]4(C)O3)o2)c1` (some centres not stated), the values for the Ki on Serine protease 1 and at Prothrombin were 25 nM and 30 nM, respectively. On Prothrombin, `CC1(C)C2CC1[C@]1(C)OB([C@H](CCCNC(=N)N)NC(=O)c3ccc(-c4ccccc4)o3)O[C@@H]1C2` (some centres not stated) returned a Ki of 137 nM. On the same count and under the same terms, in the case of `CC1(C)C2CC1[C@]1(C)OB([C@H](CCCNC(=N)N)NC(=O)c3ccc(-c4ccncc4)cc3)O[C@@H]1C2` (some centres not stated) it was 19 nM. In the case of `Cc1cc(-c2ccccc2S(=O)(=O)NC(C)(C)C)ccc1C(=O)N[C@@H](CCCN=C(N)N)B1O[C@@H]2CC3CC(C3(C)C)[C@]2(C)O1` (some centres not stated), the Ki was 0.7 nM at Serine protease 1 and 0.21 nM on Prothrombin. The same compound yielded a half-inhibitory concentration (IC50) in assay [1] of 140 nM. With `Cc1cc(-c2ccccc2C(F)(F)F)ccc1C(=O)N[C@@H](CCCN=C(N)N)B1O[C@@H]2CC3CC(C3(C)C)[C@]2(C)O1` (some centres not stated), the inhibition constant Ki is 3.1 nM at Serine protease 1 and 0.46 nM at Prothrombin.

On to `Cc1cc(-c2ccccc2S(N)(=O)=O)ccc1C(=O)N[C@@H](CCCN=C(N)N)B1O[C@@H]2CC3CC(C3(C)C)[C@]2(C)O1` (some centres not stated), for which the Ki at Serine protease 1 stood at 0.11 nM; at Prothrombin, 0.92 nM. For the same compound, the IC50 in assay [1] was 110 nM. Consider `CC1(C)OB([C@H](CCCNC(=N)N)NC(=O)c2ccccc2)OC1(C)C`, for which the inhibitory constant (Ki) was 70 nM on Serine protease 1 and 512 nM at Prothrombin.

With `Cc1cc(-c2ccccc2)ccc1C(=O)N[C@@H](CCCCN)B1O[C@@H]2CC3CC(C3(C)C)[C@]2(C)O1` (some centres not stated), the affinity on Prothrombin corresponds to a Ki of 26 nM. Take `CC1(C)C2CC1[C@]1(C)OB([C@H](CCCNC(=N)N)NC(=O)c3cccc(-c4cccc(NS(C)(=O)=O)c4)c3)O[C@@H]1C2` (some centres not stated): the figures for the Ki on Serine protease 1 and on Prothrombin were 3.8 nM and 3.5 nM, respectively. Take `CC1(C)C2CC1[C@]1(C)OB([C@H](CCCN=C(N)N)NC(=O)Cc3ccc(-c4ccccc4)cc3)O[C@@H]1C2` (some centres not stated): the Ki on Prothrombin came to 6.9 nM.
